# In patent US20250216399A1, “NONSPECIFIC REACTION INHIBITOR” (PHC CORPORATION, priority 2022, published 2025):
# Ends that are not written are not given here. PEG 20 kDa = 20 kDa PEG attached through the N-terminal amino group; l = locked nucleic acid (LNA); {C6NH2} = Amino C6 linker; d = 2'-deoxy (DNA); r = 2'-OH (RNA); f = 2'-fluoro
# B1: IgA-binding peptide modified with 20 kDa PEG (peptide)
# peptide: HMVCLSYRGRPVCFSL
# modifications: one molecule of 20 kDa PEG (succinimide-activated) attached via the amino group at the N-terminus
# Legend:
# [1] = test system: non-specific reaction substance (IgG) of sample A, human plasma; assay: Non-specific reaction inhibitory effect, Bio-Layer Interferometry, sample A (human plasma) against anti-TAT antibody; type: binding
# Experimental: The measurement was carried out under the same assay conditions as described in Example 2. In this Example, sample A and a non-specific reaction inhibitor were allowed to coexist in the measurement sample, and the non-specific reaction substances were absorbed in the sample solution.
# The antibody solution used was an anti-TAT antibody solution prepared by diluting the anti-TAT antibody used in the second reagent (hereinafter referred to as R2) of LPIA Genesis TAT, which was characterized by containing latex particles to which a monoclonal antibody with specific binding ability to TAT was immobilized, with PBS(−) to a concentration of 25 μg/mL. The sample solution was prepared by adding a final concentration of 25 μg/mL or 50 μg/mL of IgG-binding peptide or 20 kDa PEG-modified IgG-binding peptide as a non-specific reaction inhibitor to 20 μL of the test sample diluted 10-fold with PBS(−), and adjusting the total volume to 200 μL with R1.
# Using the same assay conditions as those described in Example 3, the non-specific reaction inhibitory effects of the PEG-modified peptides described in Examples 2 and 3 and the prepared PEG-modified antibody fragment were compared. The amounts of non-specific reaction inhibitor added were 25 μg/mL, 50 μg/mL, 100 μg/mL, 200 μg/mL, or 400 μg/mL, and the test sample was the same as sample A in Example 3.
# The assay was carried out under the same conditions as described in Example 3. As non-specific reaction inhibitors, sample solutions were prepared to which PEG-modified peptides chemically modified with 5 kDa, 10 kDa, 20 kDa, and 30 kDa PEG were added, and the non-specific reaction inhibitory effect of each was confirmed. The amounts of non-specific reaction inhibitors added were 5 μg/mL, 10 μg/mL, or 20 μg/mL, and the test sample was the same as Sample A in Examples 3 and 4.
# human IgG [2] = assay: Reaction inhibitory effect on human IgG, Bio-Layer Interferometry (Octet R2), anti-human IgG antibody and human IgG; type: binding; details: for Response: human IgG, not added 6.6462
# Experimental: (§1) As a model system to confirm the non-specific inhibitory effect, an anti-human IgG antibody and human IgG, or an anti-human IgA antibody and human IgA were used, and the reaction inhibitory effect on the IgG-binding peptide or the IgA-binding peptide with smaller molecular weights than antibody fragments, with or without PEG modification, was confirmed.
# (§2) The measurements were performed using Bio-Layer Interferometry (BLI) using Octet(trademark) R2 (manufactured by SARTORIUS), which was a biomolecular interaction analysis system. The basic principles of the Bio-Layer Interferometry are briefly explained below. When light of a specific wavelength is projected onto a layer of biomolecules fixed on the surface of a sensor chip, the light is reflected from both the surface of the biomolecular layer and the internal reference layer, resulting in an optical interference wave. When molecules in the measurement sample bind to the biomolecules on the surface of the sensor chip, the thickness of the layer at the tip of the sensor increases, causing a wavelength shift in the interference wave. By measuring this change in wavelength shift, it is possible to quantify and kinetically analyze in real time the number of molecules that bind to the biomolecules immobilized on the sensor chip surface. In this Example, the test sample and a non-specific reaction inhibitor were allowed to coexist in the measurement sample, and human IgG or human IgA was absorbed in the sample solution. The measurements were carried out according to the operating manual attached to the OctetR2.
# As an antibody solution, an anti-human IgG polyclonal rabbit antibody (manufactured by Dako) was diluted with PBS(−) to 25 μg/mL to prepare an anti-human IgG antibody solution. As a sample solution, the test sample was human IgG adjusted to 1 mg/mL in PBS(−), and to 20 μL of this test sample, the IgG-binding peptide or the IgG-binding peptide modified with 20 kDa PEG was added to a final concentration of 25 μg/mL or 50 μg/mL, respectively, and the total volume was adjusted to 200 μL to prepare the first reagent (hereinafter referred to as R1) of LPIA Genesis TAT (manufactured by LSI Medience Corporation), which was a thrombin-antithrombin III complex (hereinafter referred to as TAT) measurement reagent.
# The sample solution and the anti-human IgG antibody solution were added to the designated wells of a 96-well black plate (manufactured by Greiner Bio-One) at 200 μL per well. To the baseline, dissociation and washing wells, 200 μL of PBS(−) was added. This plate and a biosensor (Biosensor/ProL: manufactured by SARTRIUS) were placed in the designated positions of the OctetR2. After operating the OctetR2 under the conditions shown in Table 1 below and acquiring data, the wavelength shift change (Response) was calculated using the analysis software included with the OctetR2. The measurements were carried out at a temperature of 30° C.
# [3] = test system: non-specific reaction substances of sample A, human plasma; assay: Non-specific inhibitory effect in latex agglutination method on automatic analyzer STACIA (LPIA Genesis TAT)
# Experimental: The non-specific inhibitory effect of the IgG-binding peptide and PEG-modified IgG-binding peptide used in Example 2 was confirmed by the latex agglutination method.
# The measurements were performed using automated operation of an automatic analyzer, STACIA (manufactured by LSI Medience Corporation). In the STACIA measurement, two main operations were carried out. In the first operation, the sample to be measured was diluted with R1 and heated at 37° C. for 3.5 minutes. In the second operation, R2 was added to the reaction solution and the mixture was incubated at 37° C. for 6 minutes to induce latex agglutination. By optically monitoring the agglutination reaction, the amount of TAT or non-specific reaction substances in the samples to be measured was quantified. In this Example, the non-specific reaction inhibitor was added to R1 so that the concentration after sample addition was 0.05 mg/mL or 0.1 mg/mL, and non-specific reaction substances were absorbed during the first operation. […] The mixture ratio of the measurement sample, R1, and R2 was 20 μL:90 μL:90 μL. Latex agglutination was detected at a wavelength of 700 nm. The measured values were calculated by comparing the absorbance with a calibration curve obtained by measuring TAT of known concentrations. The test sample used was the same as sample A used in Examples 3 to 5.
# human IgG [4] = assay: Reaction inhibitory effect of IgG-binding nucleic acid aptamer on anti-human IgG antibody and human IgG, Bio-Layer Interferometry; details: 0.3 mg/mL; not added 7.9093
# Experimental: For nucleic acid aptamers, the reaction inhibitory effect with or without PEG modification was confirmed using a model system to confirm the non-specific inhibitory effect in the same manner as in Example 2.
# The test sample and measurements were performed under the same assay conditions as in Example 2. In this Example, the test sample and a non-specific reaction inhibitor were allowed to coexist in the measurement sample, and human IgG was absorbed in the sample solution. The measurements were carried out according to the operating manual attached to the OctetR2.
# Anti-human IgG polyclonal rabbit antibody (manufactured by Dako) was diluted with PBS(−) to 25 μg/mL to prepare an anti-human IgG antibody solution. The sample solution used was human IgG at 1 mg/mL in PBS(−), with 20 μL of this test sample, and either the IgG-binding nucleic acid aptamer or the IgG-binding nucleic acid aptamer modified with 20 kDa PEG added to a final concentration of 0.3 mg/mL, and then prepared with reaction buffer (145 mmol/L NaCl, 5.4 mmol/L KCl, 0.8 mmol/L MgCl2, 1.8 mmol/L CaCl2, 20 mmol/L Tris (pH 7.6), 0.05% Tween 20) to make a total volume of 200 μL.
# human IgA = assay: Reaction inhibitory effect on human IgA, Bio-Layer Interferometry (Octet R2), anti-human IgA antibody and human IgA; type: binding; details: for Response: human IgA, not added 2.1381
# Experimental: as §1, §2
# As an antibody solution, an anti-human IgA polyclonal rabbit antibody (manufactured by Dako) was diluted with PBS(−) to 25 μg/mL to prepare an anti-human IgA antibody solution. As a sample solution, the test sample was human IgA adjusted to 250 μg/mL in PBS(−), and to 20 μL of this test sample, the IgA-binding peptide or the IgA-binding peptide modified with 20 kDa PEG was added to a final concentration of 25 μg/mL or 50 μg/mL, respectively, and the total volume was adjusted to 200 μL to prepare the R1.
# Measurements using OctetR2 were performed in the same manner as for confirming the reaction inhibitory effect on human IgG.
# [5] = test system: human IgG (polyclonal immunoglobulin G) (Homo sapiens); assay: BLI; details: upper case RNA, lower case DNA; 2'-F at U6, U9, C20, U21; LNA at A18; 5' amino C6 linker conjugated to 20 kDa PEG (Jenkem ME); response of IgG on immobilised anti-human IgG antibody with 0.3 mg/mL PEG-aptamer (7.9093 nm without inhibitor); indirect, inhibition of IgG-antibody reaction …
# human IgA (human) [6] = assay: BLI (Octet R2) competition: human IgA on immobilised anti-human IgA antibody with 50 µg/mL of the peptide
# human IgA (human) [7] = assay: BLI (Octet R2) competition: human IgA on immobilised anti-human IgA antibody with 25 µg/mL of the peptide
# [8] = amount added 25 μg/mL, not added 5.7733
# [9] = amount added 50 μg/mL, not added 5.7733
# [10] = amount added 0.05 mg/mL, not added 32.01
# [11] = amount added 0.1 mg/mL, not added 27.17
molecule,measurement,setting,value
"IgG-binding peptide: human IgG-binding peptide of approximately 1.5 kDa, amino acid sequence DCAWHLGELVWCT (SEQ ID NO: 1), known for purification of human IgG (human IgG binding peptide) [reference compound]",Response,[1]; [8],6.5522 nm
same,Response,[1]; [9],6.6331 nm
same,Response,human IgG [2]; amount added 25 μg/mL,7.4221 nm
same,Response,human IgG [2]; amount added 50 μg/mL,7.6293 nm
same,Sample A measured value (TAT calibration curve),[3]; [10],37.7 ng/mL
same,Sample A measured value (TAT calibration curve),[3]; [11],42.85 ng/mL
"IgG-binding nucleic acid aptamer: human IgG-binding nucleic acid aptamer of approximately 7.5 kDa, N(6)_ggAGGU(F)GcU(F)ccgaaaGGA(L)aC(F)U(F)cc (DNA GGAGGUGCUCCGAAAGGAACUCC; sugars from the 5' end ddrrrfrdfddddddrrldffdd, 5' {C6NH2}, backbone and methylation of C not given here; further chemistry not fully specified)",Human IgG (Response),human IgG [4],7.6691 nm
PEG-modified IgG-binding peptide: IgG-binding peptide (SEQ ID NO: 1) with one molecule of 20 kDa PEG attached via the N-terminal amino group ({PEG 20 kDa}-DCAWHLGELVWCT; cysteine pairing not given here),effect in suppressing the non-specific reaction compared with the unmodified peptide,[1],greater effect in suppressing the non-specific reaction than the unmodified peptide
same,effect on inhibiting non-specific reactions compared with PEG-modified antibody fragment,[1]; added in equal amounts,greater effect on inhibiting non-specific reactions than the PEG-modified antibody fragment
same,Response,"[1]; amount added 5 μg/mL, not added 6.0114",5.5469 nm
same,Response,"[1]; amount added 10 μg/mL, not added 6.0114",5.0054 nm
same,Response,"[1]; amount added 20 μg/mL, not added 6.0114",3.8339 nm
same,Response,[1]; [8],3.0487 nm
same,Response,[1]; [9],2.9829 nm
same,Response,"[1]; amount added 100 μg/mL, not added 5.7733",3.1926 nm
same,Response,"[1]; amount added 200 μg/mL, not added 6.0744",2.8092 nm
same,Response,"[1]; amount added 400 μg/mL, not added 6.0744",3.0917 nm
same,Response,human IgG [2]; amount added 25 μg/mL,3.1484 nm
same,Response,human IgG [2]; amount added 50 μg/mL,2.6181 nm
same,reaction inhibitory effect compared with the unmodified peptide,human IgG [2]; anti-human IgG antibody and human IgG,stronger reaction inhibitory effect
same,Sample A measured value (TAT calibration curve),[3]; [10],10.84 ng/mL
same,Sample A measured value (TAT calibration curve),[3]; [11],6.25 ng/mL
"IgA-binding peptide: human IgA-binding peptide of approximately 1.8 kDa, amino acid sequence HMVCLSYRGRPVCFSL (SEQ ID NO: 2), reported for purification of human IgA [reference compound]",Response,human IgA; amount added 25 μg/mL,2.1805 nm
same,Response,human IgA; amount added 50 μg/mL,2.2263 nm
GGAGGUGCUCCGAAAGGAACUCC [PEG-modified IgG-binding nucleic acid aptamer],activity,[5],4.96 nm
PEG-modified IgA-binding peptide: IgA-binding peptide (SEQ ID NO: 2) with one molecule of 20 kDa PEG attached via the N-terminal amino group,Response,human IgA; amount added 25 μg/mL,1.6061 nm
same,Response,human IgA; amount added 50 μg/mL,1.5374 nm
same,reaction inhibitory effect compared with the unmodified peptide,human IgA; anti-human IgA antibody and human IgA,stronger reaction inhibitory effect
B1,Response [nm],human IgA (human) [6],1.54 nm
same,Response [nm],human IgA (human) [7],1.61 nm
HMVCLSYRGRPVCFSL [human IgA-binding peptide of approximately 1.8 kDa],Response [nm],human IgA (human) [6],2.23 nm
same,Response [nm],human IgA (human) [7],2.18 nm
